# In patent US5140044A, “UCN-1028D derivatives” (Kyowa Hakko Kogyo Co., Ltd., priority 1989, dated 1992):
# How the values were obtained:
# BALB 3T3/H-ras = assay: Anti-tumor activity: growth inhibition of BALB 3T3 cells transformed with H-ras (Giemsa staining); assay type: cell-based; conditions: for IC50: Mus musculus, BALB/3T3, 72 h, read-out: IC50 BALB 3T3/H-ras Inhibitory Activity
# Experimental: The anti-tumor activity was determined using BALB 3T3 cells transformed with the carcinogenic gene H-ras (hereafter referred to as BALB 3T3/H-ras).
# BALB 3T3/H-ras cells were suspended in a medium comprising DME medium (manufactured by Nissui Pharmaceutical Co., Ltd.) and 10% fetal calf serum (hereafter referred to as medium A) to a concentration of 3.0×10^4 /cells ml. The cell suspension thus prepared was put into wells of a 96-well microtiter plate in an amount of 0.1 ml per well. After culturing at 37° C. for 20 hours in a CO2 -incubator, 0.1 ml each of a test solution appropriately diluted with medium A was added to each well. The cells were further cultured at 37° C. for 72 hours in the CO2 -incubator and the culture supernatant was removed. After being washed once with physiological saline, the residue was treated with 0.1 ml of methanol for 10 minutes to fix the cells. Thereafter, the cells were stained with 0.1 ml of Giemsa staining solution [Giemsa staining stock solution (Merck Art 9204; manufactured by Merck Inc.) : physiological saline=1 : 10] for 5 minutes. After the staining solution was removed, the residue was washed once with 0.2 ml of water. The pigment was extracted with 0.2 ml of 0.1 N hydrochloric acid and the absorbance at 620 nm was measured with a microplate reader. By comparing the absorbance of untreated cells with those of the cells treated with the test compound at known concentrations, the concentration of the test compound at which the growth of the cells is inhibited by 50% (IC50) was calculated.
# Protein Kinase C = assay: Protein kinase C inhibitory activity (method of Kikkawa et al.; crude enzyme from rat brain, Histone Type II S phosphorylation); assay type: biochemical; conditions: crude enzyme partially purified from rat brain; [γ-32P]ATP, 30° C., 3 minutes, pH 7.5
# Experimental: Protein kinase C inhibitory activity
# The protein kinase C inhibitory activity was measured by the method of Kikkawa, et al. [Journal of Biological Chemistry, 257, 13341 (1982)].
# That is, 10 μl of a test solution containing a UCN-1028D derivative was added to 250 μl of a solution containing 2.5 μmoles of magnesium acetate, 50 μg of Histone Type II S (manufactured by Sigma Co., Ltd.), 20 μg of phosphatidyl serine, 0.8 μg of diolein, 25 nmoles of CaCl2, 5 μg of crude enzyme (partially purified from rat brain according to the method of Kikkawa, et al.) and 5 μmoles of Tris-hydrochloride buffer (pH 7.5), followed by incubation at 30° C. for 3 minutes. Then, phosphorylation was initiated by addition of 1.25 nmoles of [γ-^32 P]ATP (5 to 10×10^3 cpm/nmole), followed by incubation at 30° C. for 3 minutes The reaction was stopped by adding 25% trichloroacetic acid (TCA), and the reaction solution was filtered through a cellulose acetate membrane (pore size: 0.45 μm) (manufactured by Toyo Filter Paper Co., Ltd.). After the membrane was washed four times with 5% TCA, radioactivity remaining on the membrane was measured. As a control, the same procedure as above was repeated without addition of the test solution and radioactivity was likewise measured. The concentration of the test solution showing 50% inhibition as compared with the control was expressed as IC50.
SMILES,IC50 (BALB 3T3/H-ras) [µg/mL],IC50 Protein Kinase C Inhibitory Activity (Protein Kinase C) [µg/mL],"IC50 BALB 3T3/H-ras Inhibitory Activity (BALB 3T3/H-ras; growth inhibition, 72 hours, 37° C., Giemsa staining, absorbance at 620 nm) [µg/mL]"
"CCCCCCCCCCCC(=O)O[C@H](C)Cc1c(OC)c(=O)c2c(O)cc(OC)c3c4c(OC)cc(O)c5c(=O)c(OC)c(C[C@@H](C)OC(=O)CCCCCCCCCCC)c(c1c23)c54 [Compound 6, 14,17-di-O-dodecanoyl UCN-1028D]",4.8,0.15,–
"COc1ccc(C(=O)O[C@H](C)Cc2c(OC)c(=O)c3c(O)cc(OC)c4c5c(OC)cc(O)c6c(=O)c(OC)c(C[C@@H](C)OC(=O)c7ccc(OC)cc7)c(c2c34)c65)cc1 [Compound 27, 14,17-bis-O-p-methoxybenzoyl UCN-1028D]",0.026,0.05,–
"COc1c(C[C@@H](C)OC(=O)c2cccc3ccccc23)c2c3c(C[C@@H](C)OC(=O)c4cccc5ccccc45)c(OC)c(=O)c4c(O)cc(OC)c(c5c(OC)cc(O)c(c1=O)c52)c43 [Compound 31, 14,17-di-O-1-naphthoyl UCN-1028D]",1.5,0.19,–
"CCCC(=O)O[C@H](C)Cc1c(OC)c(=O)c2c(O)cc(OC)c3c4c(OC)cc(O)c5c(=O)c(OC)c(C[C@@H](C)OC(=O)CCC)c(c1c23)c54 [Compound 2, 14,17-di-O-butyryl UCN-1028D]",0.023,0.14,–
"COc1c(C[C@@H](C)O)c2c3c(C[C@@H](C)O)c(OC)c(=O)c4c(O)cc(OC)c(c5c(OC)cc(O)c(c1=O)c52)c43 [Compound 43, UCN-1028 iso-D]",–,0.74,1.0
"COc1c(C[C@@H](C)OC(=O)Nc2ccccc2)c2c3c(C[C@@H](C)OC(=O)Nc4ccccc4)c(OC)c(=O)c4c(O)cc(OC)c(c5c(OC)cc(O)c(c1=O)c52)c43 [Compound 42, 14,17-bis-O-phenylaminocarbonyl UCN-1028D]",0.075,0.021,–
"COc1c(C[C@@H](C)OC(=O)c2ccc(C)cc2)c2c3c(C[C@@H](C)OC(=O)c4ccc(C)cc4)c(OC)c(=O)c4c(O)cc(OC)c(c5c(OC)cc(O)c(c1=O)c52)c43 [Compound 29, 14,17-bis-O-p-methylbenzoyl UCN-1028D]",0.022,0.06,–
"COc1c(C[C@@H](C)OC(=O)Oc2ccccc2)c2c3c(C[C@@H](C)OC(=O)Oc4ccccc4)c(OC)c(=O)c4c(O)cc(OC)c(c5c(OC)cc(O)c(c1=O)c52)c43 [Compound 38, 14,17-bis-O-phenyloxycarbonyl UCN-1028D]",0.015,0.058,–
"COc1c(C[C@@H](C)OC(=O)OCc2ccccc2)c2c3c(C[C@@H](C)OC(=O)OCc4ccccc4)c(OC)c(=O)c4c(O)cc(OC)c(c5c(OC)cc(O)c(c1=O)c52)c43 [Compound 37, 14,17-bis-O-benzyloxycarbonyl UCN-1028D]",0.04,0.052,–
"COC(=O)c1ccc(C(=O)O[C@H](C)Cc2c(OC)c(=O)c3c(O)cc(OC)c4c5c(OC)cc(O)c6c(=O)c(OC)c(C[C@@H](C)OC(=O)c7ccc(C(=O)OC)cc7)c(c2c34)c65)cc1 [Compound 28, 14,17-bis-O-p-methoxycarbonylbenzoyl UCN-1028D]",0.068,0.084,–
"COc1c(C[C@@H](C)OC(=O)CCCc2ccccc2)c2c3c(C[C@@H](C)OC(=O)CCCc4ccccc4)c(OC)c(=O)c4c(O)cc(OC)c(c5c(OC)cc(O)c(c1=O)c52)c43 [Compound 11, 14,17-bis-O-4-phenylbutyryl UCN-1028D]",2.6,0.035,–
"COc1c(C[C@@H](C)OC(=O)c2ccc3ccccc3c2)c2c3c(C[C@@H](C)OC(=O)c4ccc5ccccc5c4)c(OC)c(=O)c4c(O)cc(OC)c(c5c(OC)cc(O)c(c1=O)c52)c43 [Compound 32, 14,17-di-O-2-naphthoyl UCN-1028D]",1.2,0.1,–
"CCCCCC(=O)O[C@H](C)Cc1c(OC)c(=O)c2c(O)cc(OC)c3c4c(OC)cc(O)c5c(=O)c(OC)c(C[C@@H](C)OC(=O)CCCCC)c(c1c23)c54 [Compound 3, 14,17-di-O-hexanoyl UCN-1028D]",0.12,0.035,–
"COc1c(C[C@@H](C)OC(=O)c2ccc(OC(C)=O)cc2)c2c3c(C[C@@H](C)OC(=O)c4ccc(OC(C)=O)cc4)c(OC)c(=O)c4c(O)cc(OC)c(c5c(OC)cc(O)c(c1=O)c52)c43 [Compound 24, 14,17-bis-O-p-acetoxybenzoyl UCN-1028D]",0.048,0.082,–
"COc1c(C[C@@H](C)OC(=O)Cc2ccccc2)c2c3c(C[C@@H](C)OC(=O)Cc4ccccc4)c(OC)c(=O)c4c(O)cc(OC)c(c5c(OC)cc(O)c(c1=O)c52)c43 [Compound 9, 14,17-bis-O-phenylacetyl UCN-1028D]",0.11,0.054,–
"COc1c(C[C@@H](C)OC(=O)c2ccc(C#N)cc2)c2c3c(C[C@@H](C)OC(=O)c4ccc(C#N)cc4)c(OC)c(=O)c4c(O)cc(OC)c(c5c(OC)cc(O)c(c1=O)c52)c43 [Compound 25, 14,17-bis-O-p-cyanobenzoyl UCN-1028D]",0.042,0.05,–
"CN[C@@H](Cc1ccccc1)C(=O)O[C@H](C)Cc1c(OC)c(=O)c2c(O)cc(OC)c3c4c(OC)cc(O)c5c(=O)c(OC)c(C[C@@H](C)OC(=O)[C@H](Cc6ccccc6)NC)c(c1c23)c54 [Compound 19, 14,17-bis-O-N-methyl-L-phenylalanyl UCN-1028D bistrifluoroacetate]",0.35,0.1,–
"COc1c(C[C@@H](C)OS(C)(=O)=O)c2c3c(C[C@@H](C)OS(C)(=O)=O)c(OC)c(=O)c4c(O)cc(OC)c(c5c(OC)cc(O)c(c1=O)c52)c43 [Compound 39, 14,17-bis-O-methanesulfonyl UCN-1028D]",0.35,0.5,–
"COC(=O)O[C@H](C)Cc1c(OC)c(=O)c2c(O)cc(OC)c3c4c(OC)cc(O)c5c(=O)c(OC)c(C[C@@H](C)OC(=O)OC)c(c1c23)c54 [Compound 36, 14,17-bis-O-methoxycarbonyl UCN-1028D]",0.13,0.29,–
"COc1c(C[C@@H](C)OC(=O)[C@H](N)c2ccccc2)c2c3c(C[C@@H](C)OC(=O)[C@H](N)c4ccccc4)c(OC)c(=O)c4c(O)cc(OC)c(c5c(OC)cc(O)c(c1=O)c52)c43 [Compound 16, 14,17-di-O-D-phenylglycyl UCN-1028D bistrifluoroacetate]",0.72,0.17,–
